Here are results for two compounds from patent publication US9205122B2, “Herbal composition comprising ginger and goldenrod for the treatment of cold and flu” (priority 2009, dated 2015).

The test system of data set [1] is Human Influenza Virus A/CA/04/09 H1N1. Description: organism not typed. Type of data set: cell-based. Conditions: A/CA/04/09, MDCK, 72 h; mix as PL202:PL208.
For data set [2], the system named is MDCK cells. Particulars: no virus, 72 h, mix as PL202:PL208.
The subject of data set [3] is human influenza virus A/WS/33, H1N1. Description: Plaque inhibition assay, influenza A/WS/33 on MDCK cell monolayer. Type of data set: cell-based. Conditions: 0.05 mg/ml, read-out: inhibition of formation of lysis plaques.
Data set [4] concerns influenza strain A/WS/33 (H1N1). Description: Mouse influenza infection model (preventive and curative arms). Conditions: curative arm, oral daily from day 0; Tamiflu 10, Nutracan 350 mg/kg. Type of data set: in vivo, CD-1 mice. The procedure:
Ginger, goldenrod and a combination thereof were assayed in a recognized animal model related to the prevention and treatment of the influenza virus (Cottey R, 2001). In this study, the ginger was assayed as a dry plant (rhizome) […] a CO2 extract. However, the relative quantity of the ginger dry plant used was equivalent to the ginger CO2 extract used in Example 1 (equivalent to the dry starting material). The ginger/goldenrod combination that was used also comprised blueberry dry powder. This formulation is named the Nutracan™ formulation and is described in Table II below.
In this model, CD-1 mice (10 females per group) were inoculated intranasally with the influenza strain A/WS/33 (H1N1) at 1×10^3 PFU as determined in a preliminary study (data not shown). […]
1) Seven groups of CD1 mice were randomized based on their weight (n=10). […] Mice were sacrificed when their general state (including abnormal behaviour, determined by a veterinarian) had deteriorated or they had lost more than 20% of their weight.

Converted amounts (≈) assume the structure as drawn. Some results are limits rather than exact numbers.

For orientation: IC50 means the midpoint of a concentration-inhibition curve. A high value points to weaker potency. For `NC(=O)c1ncn([C@@H]2O[C@H](CO)[C@@H](O)[C@H]2O)n1` [Ribavirin], in data set [1], the midpoint of inhibition, the IC50, lay at 5.26 µg/mL (≈ 21.5 µM).
For orientation: inhibition means the percentage by which the read-out fell short of the control. In data set [2], `CCOC(=O)C1=C[C@@H](OC(CC)CC)[C@H](NC(C)=O)[C@@H](N)C1` [Tamiflu, Oseltamivir phosphate] had a TC50 of more than 10.3 µg/mL and a TC90 of more than 10.3 µg/mL. Further, the inhibition at 50 µg/mL in data set [3] was found to be 52%. The “MDD (mean day of death)” value in data set [4] amounted to 7.6. For the same compound, in data set [1], half-maximal inhibition (IC50) was put at 0.1 µg/mL.
